Assay results reported in patent publication US20140057976A1, “USNIC ACID TOPICAL FORMULATION” (EVOCUTIS PLC, priority 2011, published 2014).
Marks after values point to notes of the source that are not given here.

Experiments:
[1] = system: Corynebacterium striatum NCTC 764; assay: MIC against Corynebacterium striatum; type: cell-based
[2] = system: Propionibacterium acnes NCTC 737; assay: Minimum inhibitory concentration (MIC) assay; type: cell-based; details: P. acnes NCTC 737
Method: (§1) The test organism used was Propionibacterium acnes NCTC 737. This is a propionibacterial strain and is the type strain of the […]; it is fully susceptible to antibiotics. The propionibacteria are clinically significant due to their involvement in acne. They are also opportunistic pathogens in compromised hosts. Activity observed against these micro-organisms is expected to be a good predictor of activity against acne.
(§2) The propionibacteria were cultured and maintained on Wilkins-Chalgren Anaerobe Medium (agar and broth) at pH 6.0; all cultures were incubated anaerobically at 37° C. for 72 hours.
This is a standard international method for quantitatively assessing the antimicrobial activity of a compound/formulation in a liquid medium. The method used a sterile 96-well microtitre plate, capable of holding about 200 μl of liquid per well. The wells contained liquid culture medium and ranges of decreasing concentrations of the relevant test compound/formulation (in this case reported as the relative concentration of the active molecule—copper usnate—in the formulations) in doubling dilutions (eg 1000, 500, 250, 125 . . . μg/ml, etc, down to 0.49 μg/ml). The culture media were as described above.
The wells were inoculated with a liquid suspension of freshly grown micro-organism and incubated under the conditions described above. After incubation, the microtitre plate was examined visually for cloudiness in each well, which would indicate microbial growth. The MIC value was recorded as the lowest concentration of test compound/formulation required to inhibit microbial growth, ie the lowest concentration for which the liquid in the well remained clear.
The assays included both negative (culture medium with no micro-organisms) and positive (culture medium plus diluting solvent plus micro-organism) controls.

[3] = system: Corynebacterium striatum NCTC 764; assay: MBC against Corynebacterium striatum; type: cell-based
[4] = system: Propionibacterium acnes NCTC 737; assay: Minimum biocidal concentration (MBC) assay; type: cell-based; details: P. acnes NCTC 737
Method: as §1, §2
This assay, normally carried out after an MIC assay, determines the minimum concentration of a compound or formulation that is lethal to the test micro-organism.
These samples were then individually sub-cultured on antibiotic-free agar medium, under the incubation conditions described above. Following incubation they were examined visually for microbial growth.
The ratio of MIC to MBC should ideally be as close to 1 as possible. This facilitates selection of the lowest possible effective concentration of a test compound or formulation, with a reduced risk of selecting a sub-lethal concentration which could promote resistance or allow the target microbial population to recover.

S. aureus ATCC 29213 [5] = assay: MIC against S. aureus; type: cell-based
S. aureus ATCC 29213 [6] = assay: MBC against S. aureus; type: cell-based
P. acnes NCTC 737 = assay: Synthetic sebum time-to-kill assay; type: cell-based, Propionibacterium acnes; details: 49 μg/mL Cu usnate (equivalent)
Method: This quantitative assay was designed to assess the level of kill of a P. acnes culture in a synthetic sebum (non-aqueous environment) over a defined time period, in this case 4 hours. A culture of P. acnes NCTC 737 was inoculated into a synthetic sebum (a liquid mixture of lipid components designed to simulate human sebum) containing the relevant test compound or formulation diluted in 1-octanol. From this culture, samples were taken after 4 hours, 10-fold serially diluted in wash fluid (0.075 M sodium phosphate buffer, pH 7.9, 0.1% v/v Triton™-X 100) and inoculated onto agar plates (in triplicate). The plates were then incubated as described above and subsequently examined visually for growth. The numbers of viable microbial colonies on the plates were counted with the aid of a colony counter and converted to colony-forming units per ml (cfu/ml) using the appropriate dilution factor. Cell counts conducted in the absence of formulations (but still in the presence of 1-octanol) acted as positive controls. All experiments were conducted in triplicate.

MIC [1]: 3.9 µg/mL
MIC:MBC ratio ([2]; Example 13): 0.25
MIC ([2]; Example 13, formulations as Cu usnate equivalent, anaerobic 37° C. 72 hours): 0.24 µg/mL
minimum inhibitory concentration (MIC) ([2]; found by the present inventors): 0.49 µg/mL
MIC (S. aureus ATCC 29213 [5]): 7.8 µg/mL
Compound: CC(=O)c1c([O-])c(C)c([O-])c2c1OC1=CC(=O)C(C(C)=O)C(=O)C12C.[Cu+2] (stereo not drawn) [Copper usnate, copper (II) di-usnate]
MBC [3]: 62.5 µg/mL
MBC ([4]; Example 13, formulations as Cu usnate equivalent): 0.98 µg/mL
minimum biocidal concentration (MBC) ([4]; found by the present inventors): 3.9 µg/mL
MBC (S. aureus ATCC 29213 [6]): 62.5 µg/mL
Log10 cfu/ml (T0 hours) (P. acnes NCTC 737; T0 hours): 7.97 Log10 cfu/ml
Log10 change (P. acnes NCTC 737; T0 to T4 hours): −4.97 Log10
Log10 cfu/ml (T4 hours) (P. acnes NCTC 737; T4 hours, lowest detectable level = 3.0 Log10 cfu/ml): ≤ 3.0* Log10 cfu/ml
